Experimental findings from patent US20250127774A1, “COMPOUNDS FOR LABELLING NUCLEIC ACID AND USES THEREOF” (THE ROYAL INSTITUTION FOR THE ADVANCEMENT OF …, priority 2022, published 2025) are described below.

Data set [1] is described as follows: Photophysical measurements (quantum yield) of PINK and PINK-VdU-ox. The data set is classed as physicochemical. The settings on record: excitation 488 nm, Rhodamine 6G standard; PINK in aqueous and aprotic solvents, 6 depending on the solvent used. On the procedure: PINK (4) undergoes a highly fluorogenic and regioselective IEDDA reaction with VdU (5) to give “PINK-VdU-ox” (6) as a single isomer in a 76% isolated yield after 7d at 60° C. (Scheme 1). The slow rate of this non-templated reaction (Kapp=0.01 M^−1 s^−1, FIG. 5) is due to the combination of an unstrained terminal alkene and unactivated tetrazine.^[49] Over the course of the reaction, a ˜100-fold increase in fluorescence was observed (FIG. 3, c). With a quantum yield (φF)<0.2%, PINK (4) is essentially non-fluorescent in both aqueous and aprotic solvents (FIG. 6).
Highly viscous solvents, including glycerol and polyethylene glycol (PEG 200) induced higher fluorescence of 6, likely by restricting bond rotation and thus suppressing formation of a non-emissive, twisted intramolecular charge transfer (TICT) state.^[50]
Photophysical Measurements. Stock solutions (1-10 mM) of investigated compounds were prepared in DMSO and stored at −20° C. DMSO concentrations were less than 1% after dilution into the respective solvent/aqueous buffer. Measurements were collected on a SpectraMax M5 plate reader (Molecular Devices, Sunnyvale, CA, USA) in 1 cm path-length quartz cuvettes. Quantum yields were obtained by excitation at 488 nm using Rhodamine 6G ((=0.94) in EtOH (n=1.3624) as a fluorescent standard.^[1] Quantum yields were calculated using the equation I: […]

Data set [2] concerns vinyl-modified RNA in Hela cells. The experiment in a line: Metabolic RNA labeling. The data set is classed as cell-based. The settings on record: VU 2.5 mM 24 h, PINK 100 μM 5 h; diminished by RNase A/T1. On the procedure:
The labeling approach was extended to vinyl-modified RNA. Hela cells were seeded in ibidi® 8-well plates (5.000 cells per well) and allowed to settle overnight. Cells were then incubated with 5-vinyl uridine (VU, 2.5 mM) for 24 h. After 19 h, PINK (100 μM final concentration) was added for 5 h. […]. Cells were fixed and optionally treated with RNase A/T1 mix (100 μg/mL RNase A; 250 U/mL RNase T1). Total cellular DNA was counterstained with Hoechst 33342 (5 μg/mL). Images were acquired on confocal microscopes under 20× (a) or 63× (b) magnification (FIG. 13).
Metabolic RNA Labeling. Hela cells were seeded in μ-slide 8-well chambers (ibidi®), cat-#: 80826) at a density of 2.0×10^4 cells per mL (5.000 cells per well) and allowed to settle overnight. Cells were aspirated and 5-vinyl uridine (VU, 2.5 mM, 0.1% DMSO) was added. Cells were incubated for 19 h, at which point PINK (100 μM; 0.2% DMSO final concentrations) was added. After additional 5 h, cells were aspirated, washed with PBS, and fixed with 3.7% PFA in PBS for 15 min. Cells were quenched with 50 mM glycine/NH4Cl for 5 min, washed with PBS, and permeabilized twice with 0.2% Triton X-100 in PBS for 5 min each followed by washing with PBS, twice 100 mM NaOAc buffer (pH 5.2), 10% DMSO in PBS, and PBS for 5 min each. […]

In another data set the test system is Jurkat cells. The experiment in a line: Cell counting assay (Trypan Blue). In kind it is cell-based, human. The settings on record: 10 μM nucleoside, 1 μM PINK. The protocol: (§1) To confirm the cytotoxicity results obtained from the resazurin assays, a cell counting assay was conducted using Trypan Blue. It is an azo dye allows to discriminate between viable cells and dead cells, since dead cells will take in the dye, while viable cells will remain white. 28 From the resazurin assays, and after some optimization based on cell sensitivity to the vinyl-nucleosides, it was determined that […] and 5 μM of vinyl-nucleosides alone and in combination with 1 μM of PINK were two interesting concentrations to explore in Jurkat, MV4-11, and MOLM-13 cells. Cells were incubated with 5 μM or 10 μM of each nucleoside overnight (Day 0), and 1 μM of PINK was added for the combinations and PINK alone 24h post nucleoside incubation (Day 1). The cells were counted every 24h.
(§2) Cell Counting Assay. Jurkat, MV4-11 and MOLM-13 cells were seeded in 12-well plates at a density of 500 000 cells/mL, 175 000 cells/mL and 375 000 cells/mL, respectively, in duplicates. The cells were incubated overnight in fresh media containing 10 μM (Jurkat) or 5 μM (MV4-11 and MOLM-13) of each nucleoside (˜0.01% DMSO). 24h post nucleoside addition, 1 μM of PINK (˜0.01% DMSO) were added to the respective wells and incubated for 24 h. The cells were counted using a cell counter (BIO RAD TC20) to determine the percentage of viable cells and the cell concentration. The cells were counted every 24h using Trypan Blue in a 1:1 ratio.

The test system of a further data set is MOLM-13 cells. Briefly: Cell counting assay (Trypan Blue). In kind it is cell-based, human. The settings on record: MOLM-13, 5 μM nucleoside, 1 μM PINK. On the procedure: as §1, §2
The subject of a further data set is MV4-11 cells. Briefly: Cell counting assay (Trypan Blue). In kind it is cell-based, human. The settings on record: MV4-11, 5 μM nucleoside, 1 μM PINK. The protocol: as §1, §2
The subject of the next data set is C57BL/6J mice. The experiment in a line: 5-VdU incorporation in rapidly proliferating cells in vivo. The settings on record: 500 mg/kg 5-VdU i.p. on two subsequent days. The protocol: 5-VdU incorporation in rapidly proliferating cells in vivo. C57BL/6J mice were either injected with 200 μl 10% DMSO in 1× sterile PBS as a vehicle or 500 mg/kg 5-VdU i.p. on two subsequent days and then sacrificed. Experimental group size was n=6. (A) Bone marrow was explanted, fixed, permeabilized and stained with PINK for 4 h at RT. Nuclei were counterstained with Hoechst33342. A strong nuclear signal can be observed in the PINK treated sample when compared to the controls. (B) Small intestine and (C) spleen tissue was subjected to paraffin embedding and the slides where then stained with PINK for 4 h at RT. Nuclei were counterstained with Hoechst33342. Specific nuclear signals are visible in the PINK treated sample when compared to the controls. […] These cells can be stained with PINK in FFPE sections=in vivo DNA replication/proliferation reporter.

A value given as a limit tells only on which side of the number the result lay.

As to `Cc1nnc(-c2ccc3cc4ccc(N(C)C)cc4nc3c2)nn1` [PINK], the “quantum yield (φF)” value in data set [1] is reported as below 0.2%. Besides, the “fluorescent signal of live-cell metabolic RNA labeling” value in data set [2] is on record as “strong fluorescent signal”.

With `C=Cc1cn([C@H]2C[C@H](O)[C@@H](CO)O2)c(=O)[nH]c1=O` [VdU, 5-vinyl-2′-deoxyuridine], the “cell concentration (cell growth)” value is “more impact on cell growth than expected from the resazurin assay” in the data set with Jurkat cells, “seem to inhibit cell growth” with MOLM-13 cells and “significantly inhibited cell growth” with MV4-11 cells. Also, in the data set with C57BL/6J mice, the “incorporation into rapidly dividing cells (bone marrow, small intestine, spleen; PINK staining)” value is “incorporates into rapidly dividing cells in vivo”. The toxicity to mice result in the data set on C57BL/6J mice is “non-toxic to mice at high concentrations”.
